PMC10804683, “Identification of the pyridoxal 5′‐phosphate allosteric site in human pyridox(am)ine 5′‐phosphate oxidase” (Protein Science : A Publication of the Protein Society, 2024)

Assays:
[1] = molecular target: T1, human PNPO 1-31del variant (holo-enzyme) (Homo sapiens, UniProt Q9NVS9); assay: PLP binding by FMN fluorescence changes, holo 1-31del; details: read-out: PLP binding KD^FLUO
T1 construct: a main form corresponding to the entire protein; made in house; host or cells: E. coli BL21(DE3)
T1 sequence (Q9NVS9 32-261): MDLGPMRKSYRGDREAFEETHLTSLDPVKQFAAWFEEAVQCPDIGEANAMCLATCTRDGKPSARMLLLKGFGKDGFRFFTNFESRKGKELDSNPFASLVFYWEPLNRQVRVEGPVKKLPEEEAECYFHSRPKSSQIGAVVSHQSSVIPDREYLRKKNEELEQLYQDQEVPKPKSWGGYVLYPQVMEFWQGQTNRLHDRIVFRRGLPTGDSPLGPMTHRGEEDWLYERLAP
Description: In order to further confirm the location of the PNPO allosteric site, we made several attempts to obtain the crystal structure of the protein‐PLP complex. With the E. coli homologue, any attempt to obtain such a complex with the wild type protein yielded structures in which PLP was bound at the active site, and we could obtain a complex with PLP bound at the allosteric site only when we used a multiple variant form of the enzyme in which the capability to bind ligands at the active site was impaired (Barile et al., [2021]). On the basis of this previous experience, we carried out co‐crystallization attempts with either the wild type or the R225H variant of the human protein and PLP. […] We obtained crystals with both protein forms (Table S1); however, PLP was detected only in the active site of the wild type protein, thus a clear indication about the location of the allosteric site was missing. […] The most interesting features of the 1‐31del form are a lower KD for PLP binding (threefold lower with respect to wild type PNPO), which indicates a higher affinity for the allosteric site, and the related more marked allosteric inhibition, which is evident from the comparison of the reaction kinetics measured in TRIS and HEPES buffers (Figure 7). […]

human PNPO F48A variant = molecular target: T2, human PNPO F48A variant (Homo sapiens, UniProt Q9NVS9, F48A); assay: PLP inhibition kinetics of PNP oxidation, F48A; type: biochemical; set-up: a main form corresponding to the entire protein; made in house; host or cells: E. coli BL21(DE3); details: F48A (behavior much less marked than wild type); Na-HEPES pH 7.6, 2 μM enzyme, PLP 0–16 μM
T2 sequence (Q9NVS9 1-261 F48A): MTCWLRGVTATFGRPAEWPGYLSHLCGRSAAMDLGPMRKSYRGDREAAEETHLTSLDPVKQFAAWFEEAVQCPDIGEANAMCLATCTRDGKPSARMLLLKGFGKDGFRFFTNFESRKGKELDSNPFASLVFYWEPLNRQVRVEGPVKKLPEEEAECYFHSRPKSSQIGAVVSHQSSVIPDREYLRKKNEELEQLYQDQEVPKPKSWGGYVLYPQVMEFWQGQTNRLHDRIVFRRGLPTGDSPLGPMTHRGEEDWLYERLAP
Procedure: This is a general inhibition mechanism that takes into account the possibility of PLP binding to both the active and allosteric sites. PLP binding at the active site gives a complete, competitive inhibition, whereas PLP binding at the allosteric site yields a substrate‐enzyme‐PLP ternary complex that is still catalytically active, although k CAT is reduced by a coefficient whose value is around 0.15. A thorough inhibition kinetic characterization was carried out with the wild type, F48A, F48A/E50L/R258L, and F48A/E50L/H248N/R258L PNPO forms, so as to evaluate the effect of the variations on the allosteric properties of the enzyme. The initial velocity of PNP conversion into PLP was measured in Na‐HEPES buffer (in which PLP is allowed to accumulate) by varying substrate concentration at different, fixed exogenous PLP concentrations, using 2 μM enzyme. A series of saturation curves were obtained that were used to fit the Michaelis–Menten equation (Figure 5), acquiring apparent V MAX and K M values as a function of PLP concentration. […]
FIGURE 5 Characterization of PLP inhibition. Upper panels: The initial velocity of the reaction was measured with 2 μM wild type (a), and the F48A (b), F48A/E50L/R258L (c), and F48A/E50L/H248N/R258L (d) PNPO variants, varying PNP concentration while keeping exogenous PLP fixed at different concentrations (0, 0.25, 0.5, 1, 2, 4, 8, and 16 μM). […]

Cc1ncc(COP(=O)(O)O)c(C=O)c1O [PLP, pyridoxal 5′‐phosphate]
Kd [1]: 310 ± 30 nM
type of inhibition of PNP oxidation by PLP (human PNPO F48A variant): typical hyperbolic increase of 1/V MAX and the parabolic increase of K M/V MAX
